According to patent publication US12564591B2, “HCK as a therapeutic target in MYD88 mutated diseases” (Dana-Farber Cancer Institute, Inc., priority 2019, dated 2026):
Entries after “also recorded” stand apart in the source; their conditions may differ. Like-named read-outs stand apart in the source and are kept apart here.

Experiments:
[1] = target: T1, BTK (Homo sapiens, UniProt Q06187); experiment: Enzymatic / biochemical kinase assay (SelectScreen, Life Technologies); parameters: purchased Life Technologies (SelectScreen)
T1 sequence (Q06187 whole entry): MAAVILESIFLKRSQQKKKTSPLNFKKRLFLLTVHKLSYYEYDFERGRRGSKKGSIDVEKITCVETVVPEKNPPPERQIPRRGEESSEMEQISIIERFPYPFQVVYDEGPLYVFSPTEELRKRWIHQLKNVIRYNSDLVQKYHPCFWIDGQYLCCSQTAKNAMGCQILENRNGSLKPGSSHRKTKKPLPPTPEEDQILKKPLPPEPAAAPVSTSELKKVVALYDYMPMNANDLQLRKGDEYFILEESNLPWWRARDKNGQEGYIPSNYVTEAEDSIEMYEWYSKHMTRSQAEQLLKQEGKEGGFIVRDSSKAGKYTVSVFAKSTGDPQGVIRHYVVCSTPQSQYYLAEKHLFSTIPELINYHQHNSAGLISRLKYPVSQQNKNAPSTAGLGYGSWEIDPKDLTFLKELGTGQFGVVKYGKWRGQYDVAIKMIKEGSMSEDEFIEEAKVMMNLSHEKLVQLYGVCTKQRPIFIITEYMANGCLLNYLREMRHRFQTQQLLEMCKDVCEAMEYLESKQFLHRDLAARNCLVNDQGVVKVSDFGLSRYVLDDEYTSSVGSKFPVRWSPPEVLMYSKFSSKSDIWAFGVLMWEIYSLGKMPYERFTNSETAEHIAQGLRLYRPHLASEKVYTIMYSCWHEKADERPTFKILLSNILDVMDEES

[2] = target: T2, HCK (Homo sapiens, UniProt P08631); experiment: as above
T2 sequence (P08631 whole entry): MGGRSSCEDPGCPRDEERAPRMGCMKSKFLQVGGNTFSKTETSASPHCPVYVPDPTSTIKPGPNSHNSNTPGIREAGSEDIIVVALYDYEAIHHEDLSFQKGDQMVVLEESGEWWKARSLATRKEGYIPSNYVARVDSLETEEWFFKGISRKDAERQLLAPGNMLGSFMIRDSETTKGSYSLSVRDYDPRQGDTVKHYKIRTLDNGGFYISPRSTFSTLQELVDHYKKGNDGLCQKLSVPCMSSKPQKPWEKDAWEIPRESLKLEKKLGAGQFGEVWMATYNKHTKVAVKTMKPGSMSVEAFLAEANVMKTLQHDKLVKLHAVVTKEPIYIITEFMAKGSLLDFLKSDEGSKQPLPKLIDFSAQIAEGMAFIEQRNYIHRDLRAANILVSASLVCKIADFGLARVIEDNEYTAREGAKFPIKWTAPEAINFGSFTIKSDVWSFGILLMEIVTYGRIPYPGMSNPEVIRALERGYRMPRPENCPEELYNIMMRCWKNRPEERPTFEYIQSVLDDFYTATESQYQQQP

[3] = system: panel of 464 kinases; experiment: KINOMEscan kinome selectivity profiling (DiscoverX); assay type: binding; conditions: for S(1) score / S(10) score: 1.0 μM, panel of over 460 kinases
Experimental: The compounds were profiled at a concentration of 1.0 μM against a panel of over 460 kinases by DiscoverX.

[4] = Pharmacokinetics of A419259 under oral administration
[5] = target: T3, LYN (Homo sapiens, UniProt P07948); experiment: Enzymatic assay (SelectScreen, Life Technologies); assay type: biochemical
T3 sequence (P07948 whole entry): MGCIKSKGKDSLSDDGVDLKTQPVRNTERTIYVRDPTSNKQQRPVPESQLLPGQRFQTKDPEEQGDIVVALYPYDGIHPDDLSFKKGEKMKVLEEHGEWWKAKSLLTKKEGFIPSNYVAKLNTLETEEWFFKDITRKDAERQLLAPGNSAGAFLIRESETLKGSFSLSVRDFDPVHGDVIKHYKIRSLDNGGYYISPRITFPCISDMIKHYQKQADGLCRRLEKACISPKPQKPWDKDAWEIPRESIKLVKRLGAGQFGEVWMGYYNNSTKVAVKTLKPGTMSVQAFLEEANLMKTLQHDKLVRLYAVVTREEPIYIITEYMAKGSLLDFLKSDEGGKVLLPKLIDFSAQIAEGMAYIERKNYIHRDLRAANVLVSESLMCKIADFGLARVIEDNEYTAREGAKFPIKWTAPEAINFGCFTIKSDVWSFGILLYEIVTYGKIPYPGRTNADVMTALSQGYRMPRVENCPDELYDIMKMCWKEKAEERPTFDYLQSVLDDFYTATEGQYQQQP

[6] = system: kinases in TMD8 ABC DLBCL cells; experiment: KiNativ live-cell target engagement profiling (desthiobiotin-ATP probe); assay type: cell-based
[7] = target: T1, BTK; experiment: ATP-competitive pulldown assay (desthiobiotin-ATP probe, western blot) in live BCWM.1 and TMD8 cells; assay type: cell-based; conditions: live cell pre-treatment
[8] = system: p-HCK and p-BTK in WM patients LPCs; experiment: p-HCK and p-BTK by PhosFlow in MYD88 mutated WM patient bone marrow tumor cells; assay type: cell-based, human
Experimental: (§1) The anti-tumor activity of Compound (I) was also assessed using primary MYD88 mutated bone marrow derived CD19-positive lymphoplasmacytic cells (LPCs) from WM patients, and compared effects against healthy donor CD19+ B-cells.

[9] = system: MYD88 mutated WM and ABC DLBCL cell lines versus MYD88 wild-type GCB DLBCL, Burkitt's Lymphoma, and multiple myeloma cell lines; experiment: CellTiter-Glo cell viability, MYD88 mutated versus wild-type cell lines; assay type: cell-based
[10] = system: primary MYD88 mutated bone marrow derived CD19-positive lymphoplasmacytic cells (LPCs) from WM patients; experiment: Apoptosis of primary WM patient lymphoplasmacytic cells; assay type: cell-based, human
Experimental: as §1

[11] = system: healthy donor CD19+ B-cells; experiment: Apoptosis of healthy donor B-cells; assay type: cell-based, human
Experimental: as §1

[12] = system: vector, HCK^WT or HCK^T333M transduced BCWM.1 cells; experiment: HCK^T333M gatekeeper mutant rescue, dose-response 72 hours; assay type: cell-based; conditions: versus vector or wild-type HCK transduced BCWM.1 cells
Source text: (§2) An HCK gatekeeper mutant HCK^T333M was generated and rescue experiments performed in MYD88 mutated BCWM.1 cells. Expression of HCK^T333M produced a more than 20-fold increase in resistance to Compound (I) versus vector or wild-type HCK transduced BCWM.1 cells (FIG. 5A).

[13] = system: vector, HCK^WT or HCK^T333M transduced MWCL-1 WM cells; experiment: as above; assay type: cell-based
Experimental: Dose-responses of vector only or HCK^WT or HCK^T333M transduced MWCL-1 cells following the treatment Compound (I) for 72 hours (FIG. 6A).

[14] = system: vector, HCK^WT or HCK^T333M transduced TMD8 ABC DLBCL cells; experiment: as above; assay type: cell-based
Experimental: Dose-responses of vector only or HCK^WT or HCK^T333M transduced […] cells following the treatment Compound (I) for 72 hours (FIG. 7A).

[15] = system: HCK activation (pHCK^Y411); experiment: pHCK by PhosFlow in HCK^WT or HCK^T333M transduced BCWM.1 cells; assay type: cell-based; conditions: HCK^T333M but not HCK^WT expressing BCWM.1 cells
Source text: as §2

[16] = system: pBTK, pAKT, pERK1/2, and pSYK; experiment: Western blot of downstream signaling in HCK^WT or HCK^T333M transduced BCWM.1 cells; assay type: cell-based
Source text: as §2

[17] = Liver microsome stability; assay type: in vitro ADME; conditions: mouse, liver microsomes
[18] = Liver microsome stability; assay type: in vitro ADME; conditions: rat, liver microsomes
[19] = Liver microsome stability; assay type: in vitro ADME; conditions: dog, liver microsomes; dogs; read-out: half-life t1/2 with purified microsomes
[20] = Liver microsome stability; assay type: in vitro ADME; conditions: human, liver microsomes
[21] = Murine pharmacokinetics (intravenous and oral); assay type: in vivo; conditions: mouse, serum; for bioavailability: read-out: bioavailability (% F)
[22] = system: CYP1A; experiment: In vitro CYP inhibition; assay type: in vitro ADME; parameters: dose or concentration left out as unconfirmed; conditions: at 10 PM; read-out: CYP inhibition (1A)
Source text: (§3) […]. […] […].

[23] = target: CYP2B6 (Homo sapiens, UniProt P20813); experiment: In vitro CYP inhibition; assay type: in vitro ADME; parameters: dose or concentration left out as unconfirmed; conditions: at 10 PM, read-out: CYP inhibition (2B6)
CYP2B6, sequence (P20813 whole entry): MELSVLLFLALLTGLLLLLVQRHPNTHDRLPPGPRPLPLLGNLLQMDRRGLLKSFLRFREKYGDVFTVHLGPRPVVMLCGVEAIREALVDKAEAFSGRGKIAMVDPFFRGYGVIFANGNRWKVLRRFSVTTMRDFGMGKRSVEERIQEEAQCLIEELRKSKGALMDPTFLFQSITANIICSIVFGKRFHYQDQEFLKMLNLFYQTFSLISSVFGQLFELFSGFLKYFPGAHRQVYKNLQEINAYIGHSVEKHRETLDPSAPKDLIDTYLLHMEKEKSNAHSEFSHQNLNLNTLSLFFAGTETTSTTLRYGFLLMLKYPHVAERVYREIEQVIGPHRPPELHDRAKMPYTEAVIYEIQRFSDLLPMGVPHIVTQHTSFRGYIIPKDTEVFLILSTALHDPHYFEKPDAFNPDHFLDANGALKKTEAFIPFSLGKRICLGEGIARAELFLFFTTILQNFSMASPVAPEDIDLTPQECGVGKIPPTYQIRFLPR
Source text: as §3

[24] = target: CYP2C19 (Homo sapiens, UniProt P33261); experiment: In vitro CYP inhibition; assay type: in vitro ADME; parameters: dose or concentration left out as unconfirmed; conditions: at 10 PM, read-out: CYP inhibition (2C19)
Source text: as §3

[25] = target: CYP2C8 (Homo sapiens, UniProt P10632); experiment: In vitro CYP inhibition; assay type: in vitro ADME; parameters: dose or concentration left out as unconfirmed; conditions: at 10 PM, read-out: CYP inhibition (2C8)
CYP2C8, sequence (P10632 whole entry): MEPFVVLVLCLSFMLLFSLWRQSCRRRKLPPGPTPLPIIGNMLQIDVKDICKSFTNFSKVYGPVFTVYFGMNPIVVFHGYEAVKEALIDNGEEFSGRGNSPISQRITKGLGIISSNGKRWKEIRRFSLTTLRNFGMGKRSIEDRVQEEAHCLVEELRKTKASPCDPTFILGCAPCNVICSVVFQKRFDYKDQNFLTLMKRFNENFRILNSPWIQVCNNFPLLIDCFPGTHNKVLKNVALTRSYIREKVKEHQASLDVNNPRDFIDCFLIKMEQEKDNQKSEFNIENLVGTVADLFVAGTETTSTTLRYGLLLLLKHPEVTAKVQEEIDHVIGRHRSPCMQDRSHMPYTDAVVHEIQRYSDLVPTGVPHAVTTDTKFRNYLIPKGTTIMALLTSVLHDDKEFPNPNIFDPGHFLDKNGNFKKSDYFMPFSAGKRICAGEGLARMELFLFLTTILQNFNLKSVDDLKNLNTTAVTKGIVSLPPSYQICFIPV
Source text: as §3

[26] = target: CYP2C9 (Homo sapiens, UniProt P11712); experiment: In vitro CYP inhibition; assay type: in vitro ADME; parameters: dose or concentration left out as unconfirmed; conditions: at 10 PM, read-out: CYP inhibition (2C9)
CYP2C9, sequence (P11712 whole entry): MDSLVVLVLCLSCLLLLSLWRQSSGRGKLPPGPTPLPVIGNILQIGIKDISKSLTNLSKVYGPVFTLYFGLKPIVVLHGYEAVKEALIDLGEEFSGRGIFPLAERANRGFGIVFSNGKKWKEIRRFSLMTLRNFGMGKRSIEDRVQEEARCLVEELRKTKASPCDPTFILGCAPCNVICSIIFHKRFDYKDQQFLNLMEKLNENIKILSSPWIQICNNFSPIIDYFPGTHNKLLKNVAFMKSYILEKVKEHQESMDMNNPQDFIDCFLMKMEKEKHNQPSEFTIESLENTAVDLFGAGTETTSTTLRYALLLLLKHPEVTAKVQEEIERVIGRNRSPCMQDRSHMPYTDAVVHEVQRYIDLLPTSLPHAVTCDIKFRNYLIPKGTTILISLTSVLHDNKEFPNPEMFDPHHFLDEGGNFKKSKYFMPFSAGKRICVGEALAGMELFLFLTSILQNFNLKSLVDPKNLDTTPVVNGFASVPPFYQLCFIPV
Source text: as §3

[27] = target: CYP2D6 (Homo sapiens, UniProt P10635); experiment: In vitro CYP inhibition; assay type: in vitro ADME; parameters: dose or concentration left out as unconfirmed; conditions: at 10 PM, read-out: CYP inhibition (2D6)
CYP2D6, sequence (P10635 whole entry): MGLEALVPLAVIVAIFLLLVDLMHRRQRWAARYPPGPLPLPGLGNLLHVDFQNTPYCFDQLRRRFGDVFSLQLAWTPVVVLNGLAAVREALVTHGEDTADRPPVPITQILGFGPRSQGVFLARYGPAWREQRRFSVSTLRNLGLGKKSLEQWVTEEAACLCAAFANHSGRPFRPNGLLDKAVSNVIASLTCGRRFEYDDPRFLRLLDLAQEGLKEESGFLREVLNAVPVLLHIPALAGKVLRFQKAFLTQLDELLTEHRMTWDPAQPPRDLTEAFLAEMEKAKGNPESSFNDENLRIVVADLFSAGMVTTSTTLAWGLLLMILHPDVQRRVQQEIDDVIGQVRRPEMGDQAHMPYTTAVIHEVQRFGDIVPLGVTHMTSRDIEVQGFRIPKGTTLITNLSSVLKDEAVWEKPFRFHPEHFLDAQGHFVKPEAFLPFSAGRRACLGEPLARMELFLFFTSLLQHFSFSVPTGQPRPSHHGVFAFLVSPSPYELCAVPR
Source text: as §3

[28] = target: hERG (Homo sapiens, UniProt Q12809); experiment: hERG testing (patch clamp) for cardiotoxicity; assay type: cell-based; conditions: at 16 μM
hERG, sequence (Q12809 whole entry): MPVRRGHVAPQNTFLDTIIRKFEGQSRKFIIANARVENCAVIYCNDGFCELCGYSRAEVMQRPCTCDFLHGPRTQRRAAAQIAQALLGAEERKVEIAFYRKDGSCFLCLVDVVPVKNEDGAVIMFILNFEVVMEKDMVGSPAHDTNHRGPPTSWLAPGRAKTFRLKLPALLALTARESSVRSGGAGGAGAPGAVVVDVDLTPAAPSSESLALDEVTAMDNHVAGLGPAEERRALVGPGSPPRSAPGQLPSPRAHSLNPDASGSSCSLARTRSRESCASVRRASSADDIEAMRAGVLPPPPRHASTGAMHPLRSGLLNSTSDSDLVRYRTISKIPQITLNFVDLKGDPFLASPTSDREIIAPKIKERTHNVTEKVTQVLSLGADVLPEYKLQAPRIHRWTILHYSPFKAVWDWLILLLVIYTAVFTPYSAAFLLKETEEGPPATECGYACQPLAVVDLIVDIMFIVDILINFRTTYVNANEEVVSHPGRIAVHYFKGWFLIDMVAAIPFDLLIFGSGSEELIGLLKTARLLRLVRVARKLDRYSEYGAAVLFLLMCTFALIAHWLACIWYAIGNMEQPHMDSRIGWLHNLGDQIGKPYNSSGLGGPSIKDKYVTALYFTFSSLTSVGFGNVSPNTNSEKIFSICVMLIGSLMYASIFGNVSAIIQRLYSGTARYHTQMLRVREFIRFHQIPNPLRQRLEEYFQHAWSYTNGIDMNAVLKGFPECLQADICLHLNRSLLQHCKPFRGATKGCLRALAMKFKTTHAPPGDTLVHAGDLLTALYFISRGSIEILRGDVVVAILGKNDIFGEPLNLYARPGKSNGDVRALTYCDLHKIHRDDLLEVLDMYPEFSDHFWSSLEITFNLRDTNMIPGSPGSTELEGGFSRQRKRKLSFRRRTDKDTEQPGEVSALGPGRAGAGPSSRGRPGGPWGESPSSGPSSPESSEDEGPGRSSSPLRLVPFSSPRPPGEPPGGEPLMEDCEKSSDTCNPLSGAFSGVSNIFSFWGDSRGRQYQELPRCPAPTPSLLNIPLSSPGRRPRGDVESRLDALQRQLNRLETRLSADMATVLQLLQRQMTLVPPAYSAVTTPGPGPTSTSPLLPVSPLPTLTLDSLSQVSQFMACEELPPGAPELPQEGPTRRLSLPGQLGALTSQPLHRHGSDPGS
Source text: as §3

[29] = Tolerability study, daily oral dosing; assay type: in vivo; conditions: up to 75 mg/kg daily oral dosing, NOD-SCID mice dosed for >6 weeks, no adverse events observed
Source text: as §3

[30] = Plasma protein binding; assay type: in vitro ADME
Source text: as §3

[31] = Survivability of treated subjects; assay type: in vivo; conditions: compared to subjects treated with other BTK inhibitors (e.g., ibrutinib, A419259)
[32] = system: Salmonella typhimurium tester strains (TA98, TA100, TA1535 and TA1537); experiment: Ames genotoxicity testing; conditions: up to 50 μM with and without metabolic activation by rat liver S9 fraction
[33] = target: T2, HCK; experiment: ATP-competitive pulldown assay (desthiobiotin-ATP probe, western blot) in live BCWM.1 and TMD8 cells; assay type: cell-based; parameters: purchased Life Technologies (SelectScreen); conditions: live cell pre-treatment
[34] = target: T3, LYN; experiment: as above; assay type: cell-based; parameters: endogenous in cells; host or cells: BCWM.1 and TMD8 cells
[35] = system: HCK phosphorylation at Thr^209; conditions: MYD88 mutated WM and ABC DLBCL cells
[36] = system: BTK and ERK 1/2 phosphorylation; conditions: vector only, and BTK^WT transduced BCWM.1 or TMD8 cells, 1.0 hour
[37] = HCK^T333M expressing BCWM.1 cells
[38] = read-out: T1/2 in liver microsomes

CN1CCN([C@H]2CC[C@H](n3nc(-c4ccc(Oc5ccccc5)cc4)c4c(N)ncnc43)CC2)CC1 [Compound (I), 1-((1r,4r)-4-(4-methylpiperazin-1-yl)cyclohexyl)-3-(4-phenoxyphenyl)-1H-pyrazolo[3,4-d]pyrimidin-4-amine]
IC50 [1]: 0.915 nM | IC50 [2]: < 0.495 nM

CN1CCN(C2CCC(n3cc(-c4ccc(Oc5ccccc5)cc4)c4c(N)ncnc43)CC2)CC1 (stereo not shown) [Compound A419259, reference compound]
S(1) score [3]: 0.07 | S(10) score [3]: 0.13 | Tui2 [4]: 176.0 h

CN1CCN(C2CCC(n3nc(-c4ccc(Oc5ccccc5)cc4)c4c(N)ncnc43)CC2)CC1 (stereo not shown) [Compound (I), 1-((1r,4r)-4-(4-methylpiperazin-1-yl)cyclohexyl)-3-(4-phenoxyphenyl)-1H-pyrazolo[3,4-d]pyrimidin-4-amine]
IC50s (in words) [5]: single-digit nanomolar | S(1) score [3]: 0.07 | S(10) score [3]: 0.13 | S10 ([3]; panel of 464 kinases): 0.07 | S35 ([3]; panel of 464 kinases): 0.13 | targeted kinases ([3]; panel of 464 kinases): mainly limited to the Src-family kinases HCK, BLK, LYN, and FRK, and the Tec-family kinase BTK | activity against SRC-family kinases (HCK, BLK, LYN, FRK), Tec-family kinases (BTK), ACK (TNK2), CSK, ErbB2, and ABL [6]: nanomolar activity | target engagement (block of kinase binding to desthiobiotin-ATP probe) ([6]; TMD8 ABC DLBCL cells treated at 1. μM): strongly targeted both HCK and BTK | BTK inhibition / binding [7]: effectively binds | p-HCK and p-BTK levels [8]: reduction of p-HCK(T209) and p-BTK^Y223 | anti-tumor activity [9]: targeted anti-tumor activity | apoptotic effect [10]: robust apoptosis | apoptotic effect [11]: no apoptotic effect | increase in resistance by expression of HCK^T333M [12]: more than 20 fold | effect of HCK^T333M on compound induced cell death [13]: rescues Compound (I) induced cell death | effect of HCK^T333M on compound induced cell death [14]: rescues Compound (I) induced cell death | HCK activation in the presence of compound [15]: persistent activation of HCK | attenuation of pBTK, pAKT, pERK1/2, and pSYK [16, 37]: abrogated | pBTK [16, 37]: continued to show reduced activity | expression of pBTK, pAKT, pERK1/2, and p-SYK ([16]; HCK^WT expressing BCWM.1 cells): blocked the expression of pBTK, pAKT, pERK1/2, and p-SYK in a dose dependent manner | half-life ([17]; mice, read-out: half-life t1/2 with purified microsomes): 1.77 h | half-life [17, 38]: ≥ 1 h | half-life ([18]; rats, read-out: half-life t1/2 with purified microsomes): > 2 h | half-life [18, 38]: ≥ 1 h | half-life [19]: 1 h | half-life ([20]; humans, read-out: half-life t1/2 with purified microsomes): 0.825 h | half-life [20, 38]: ≥ 1 h | clearance ([21]; intravenous, 2 mg/kg, read-out: in vivo clearance rate): 17.4 mL/min/kg | bioavailability ([21]; po, 10 mg/kg, 10 mg/kg oral): 49% | bioavailability ([21]; po, 25 mg/kg, 25 mg/kg oral): 55% | AUC ([21]; po, orally at 10 mg/kg): 5.2 µM·h | half-life ([21]; po, orally at 10 mg/kg and 25 mg/kg, read-out: T1/2): 15.1 to 16.9 h | AUC ([21]; po, orally at 25 mg/kg): 11.4 µM·h | half-life ([21]; 10 mg/kg oral, read-out: serum half-life (converted)): 15.1 h | half-life ([21]; 25 mg/kg oral, read-out: serum half-life (converted)): 16.9 h | half-life ([21]; intravenous administration (2 mg/kg), read-out: serum half-life (converted)): 11.5 h | inhibition [22]: -27.9% | inhibition [23]: 64.5% | inhibition [24]: 0.8% | inhibition [25]: -3.8% | inhibition [26]: -10.9% | inhibition [27]: 24.9% | hERG cardiotoxicity (patch clamp) [28]: negative | tolerability [29]: well-tolerated | fraction unbound ([30]; dog, dogs): 0.05 | fraction unbound ([30]; human, humans): 0.043 | fraction unbound ([30]; mouse, mice): 0.023 | fraction unbound ([30]; rat, rats): 0.045 | survivability [31]: increased survivability | Ames genotoxicity [32]: negative | IC50s (in words) [1]: single-digit nanomolar | engagement of / binding to HCK [33]: robust engagement; also recorded: very strongly binds | binding to LYN [34]: very strongly binds | IC50s (in words) [2]: single-digit nanomolar | inhibition of HCK phosphorylation [35]: robust inhibition | BTK and ERK 1/2 phosphorylation [36]: effectively blocked
